Columns and labels:
murine EAE model = conditions: cited from earlier work
[1] = molecular target: T1, human α4β2 neuronal nicotinic receptor (Homo sapiens, UniProt P17787+P43681); assay: α4β2 neuronal nicotinic receptor assay (agonist radioligand, [3H]cytisine); format: binding; conditions: transfected SH-SY5Y cell membranes, 0.6 nM [3H]cytisine, band
T1 construct: host or cells: SH-SY5Y cells (membrane homogenates)
Method: Cell membrane homogenates (30 μg protein) were incubated for 120 min at 4° C. with 0.6 nM [3H]cytisine in the absence or presence of the test compound in a buffer containing 50 mM Tris-HCl (pH 7.4), 120 mM NaCl, 5 mM KCl, 2.5 mM CaCl2 and 1 mM MgCl2. Nonspecific binding was determined in the presence of 10 μM nicotine bitartrate. Following incubation, the samples were filtered rapidly under vacuum through glass fiber filters (GF/B, Packard) presoaked with 0.3% PEI and rinsed several times with ice-cold 50 mM Tris-HCl using a 96-sample cell harvester (Unifilter, Packard).
The filters were dried then counted for radioactivity in a scintillation counter (Topcount, Packard) using a scintillation cocktail (Microscint 0, Packard). The results were expressed as a percent inhibition of the control radioligand specific binding. The standard reference compound was nicotine bitartrate.
A number of example compounds of formula (I) were tested to evaluate their affinity for the human α4β2 neuronal nicotinic receptor expressed in transfected SH-SY5Y cells, determined in a radioligand binding assay.

[2] = molecular target: T2, MTHFD1 recombinant human enzyme (Homo sapiens, UniProt P11586); assay: MTHFD1 inhibition assay (NAD(P)H-Glo luminescence); conditions: MTHFD1 IC50, recombinant human enzyme 200 nM, NADP, band
T2 sequence (P11586 2-291 limits assumed): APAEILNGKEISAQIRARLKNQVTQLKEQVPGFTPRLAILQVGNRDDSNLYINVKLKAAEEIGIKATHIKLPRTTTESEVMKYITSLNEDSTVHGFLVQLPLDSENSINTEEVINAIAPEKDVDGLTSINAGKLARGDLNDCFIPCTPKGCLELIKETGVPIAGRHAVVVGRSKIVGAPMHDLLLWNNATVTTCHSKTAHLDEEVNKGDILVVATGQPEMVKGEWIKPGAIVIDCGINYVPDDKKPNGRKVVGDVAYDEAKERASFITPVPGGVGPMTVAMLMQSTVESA

[3] = molecular target: T3, MTHFD2 recombinant human enzyme (Homo sapiens, UniProt P13995); assay: MTHFD2 inhibition assay (NAD(P)H-Glo luminescence); conditions: for MTHFD1/MTHFD2 IC50 ratio: selectivity of MTHFD2 inhibition over MTHFD1, band
T3 sequence (P13995 36-350): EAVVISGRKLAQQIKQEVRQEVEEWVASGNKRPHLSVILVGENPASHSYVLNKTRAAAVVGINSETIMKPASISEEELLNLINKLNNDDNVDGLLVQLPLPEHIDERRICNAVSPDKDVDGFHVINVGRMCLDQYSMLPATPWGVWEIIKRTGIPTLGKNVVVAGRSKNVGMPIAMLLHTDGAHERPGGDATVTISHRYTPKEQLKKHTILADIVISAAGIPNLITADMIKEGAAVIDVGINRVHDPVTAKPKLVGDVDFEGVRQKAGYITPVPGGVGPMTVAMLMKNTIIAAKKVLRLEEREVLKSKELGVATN

human CD4+ T cells = assay: Human CD4+ T-cell proliferation assay (CFSE, CD3/28 beads); conditions: read-out: Proliferation IC50
CD4+ T-cells = conditions: cited from earlier work
[4] = test system: murine KLH contact sensitization model; conditions: cited from earlier work

T1 sequence (P43681 29-627 limits assumed): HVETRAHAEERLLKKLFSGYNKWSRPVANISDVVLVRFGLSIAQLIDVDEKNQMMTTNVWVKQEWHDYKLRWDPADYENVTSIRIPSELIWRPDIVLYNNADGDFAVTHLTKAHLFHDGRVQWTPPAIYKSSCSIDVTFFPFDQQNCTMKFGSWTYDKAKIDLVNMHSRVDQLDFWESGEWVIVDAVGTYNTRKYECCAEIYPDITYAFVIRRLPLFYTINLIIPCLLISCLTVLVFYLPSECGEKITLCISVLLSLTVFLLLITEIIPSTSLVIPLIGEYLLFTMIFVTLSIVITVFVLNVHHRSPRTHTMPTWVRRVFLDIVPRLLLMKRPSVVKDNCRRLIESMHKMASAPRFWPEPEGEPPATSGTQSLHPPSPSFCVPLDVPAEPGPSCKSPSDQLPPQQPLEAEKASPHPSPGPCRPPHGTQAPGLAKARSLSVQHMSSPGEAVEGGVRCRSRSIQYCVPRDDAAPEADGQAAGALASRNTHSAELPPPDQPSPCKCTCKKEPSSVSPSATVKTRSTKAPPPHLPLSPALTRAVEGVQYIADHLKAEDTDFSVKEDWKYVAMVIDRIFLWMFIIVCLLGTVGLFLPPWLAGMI
T1 sequence (P17787 26-502): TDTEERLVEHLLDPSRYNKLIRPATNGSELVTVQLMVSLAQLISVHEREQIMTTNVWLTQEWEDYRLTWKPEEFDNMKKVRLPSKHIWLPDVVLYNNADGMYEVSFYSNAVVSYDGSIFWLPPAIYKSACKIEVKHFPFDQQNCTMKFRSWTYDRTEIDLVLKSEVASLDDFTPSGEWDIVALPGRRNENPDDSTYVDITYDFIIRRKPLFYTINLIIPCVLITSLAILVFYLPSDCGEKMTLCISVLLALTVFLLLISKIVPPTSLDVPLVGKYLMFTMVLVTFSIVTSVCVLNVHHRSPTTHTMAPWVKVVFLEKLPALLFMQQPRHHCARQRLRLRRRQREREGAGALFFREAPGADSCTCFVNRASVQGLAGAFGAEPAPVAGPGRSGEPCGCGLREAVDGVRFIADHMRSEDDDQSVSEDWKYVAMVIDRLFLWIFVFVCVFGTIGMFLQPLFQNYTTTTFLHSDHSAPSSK

Row | Structure (SMILES) | tolerability at the therapeutic doses used (murine EAE model; in vivo) | disease severity and cumulative clinical score compared to vehicle (murine EAE model; mice, oral, day 4 to day 26) | immune cell infiltrate into the spinal cord (murine EAE model; mice, oral, day 4 to day 26) | IC50 [1] | IC50 [2] | IC50 [3] | IC50 (human CD4+ T cells) | MTHFD1/MTHFD2 IC50 ratio [3] | number of Th1 and Th17 cells differentiated in vitro from CD4+ T-cells and expression of the respective Th1 and Th17 cytokines (CD4+ T-cells) | IFNγ and IL-17 (CD4+ T-cells; in vitro) | immune-suppressive Treg cells (CD4+ T-cells; in vitro) | tolerability at the therapeutic doses used ([4]; in vivo) | ear-swelling ([4]; murine KLH contact sensitization model)
1 | Nc1nc2c(c(=O)[nH]1)N1C(=O)N(c3ccc(C(=O)N[C@@H](CCC(=O)O)C(=O)O)cc3)CC1CN2 (stereo partly drawn) [LY345899] | well tolerated | significantly reduced | reduced | – | – | – | – | – | – | – | – | – | –
2 | COC[C@H]1CN(c2cc(C)c3c4c(c(=O)oc3c2C)CN(C(=O)c2ccc(C(=O)NS(=O)(=O)N3CC5CC5C3)c(OC)c2F)CC4)CCN1C (stereo partly drawn) [Example 156, N-((3-azabicyclo[3.1.0]hexan-3-yl)sulfonyl)-3-fluoro-2-methoxy-4-(8-((R)-3-(methoxymethyl)-4-methylpiperazin-1-yl)-7,10-dimethyl-5-oxo-1,3,4,5-tetrahydro-2H-chromeno[3,4-c]pyridine-3-carbonyl)benzamide] | – | – | – | 20000 to 100000 nM | 100 to 1000 nM | 10 to 100 nM | 30 to 100 nM | – | – | – | – | – | –
3 | COC[C@H]1CN(c2cc(C)c3c4c(c(=O)oc3c2C)CN(C(=O)c2cc(N(C)C)c(C(=O)NS(=O)(=O)N3CCCC3)cc2Cl)CC4)CCN1C [Example 150, (R)-5-chloro-2-(dimethylamino)-4-(8-(3-(methoxymethyl)-4-methylpiperazin-1-yl)-7,10-dimethyl-5-oxo-1,3,4,5-tetrahydro-2H-chromeno[3,4-c]pyridine-3-carbonyl)-N-(pyrrolidin-1-ylsulfonyl)benzamide] | – | – | – | 20000 to 100000 nM | 1000 to 5000 nM | 10 to 100 nM | 10 to 30 nM | J (>30) | – | – | – | – | –
4 | COC[C@H]1CN(c2cc(C)c3c4c(c(=O)oc3c2C)CN(C(=O)c2ccc(C(=O)NS(=O)(=O)N3CCCC3)c(OC3CCC3)c2)CC4)CCN1C [Example 1, (R)-2-cyclobutoxy-4-(8-(3-(methoxymethyl)-4-methylpiperazin-1-yl)-7,10-dimethyl-5-oxo-1,3,4,5-tetrahydro-2H-chromeno[3,4-c]pyridine-3-carbonyl)-N-(pyrrolidin-1-ylsulfonyl)benzamide] | – | – | – | 2000 to 20000 nM | 100 to 1000 nM | 100 to 1000 nM | 1 to 10 nM | F (<3) | – | – | – | – | –
5 | Cc1c(N2CCN(C)[C@@H](C)C2)ccc2c3c(c(=O)oc12)CN(C(=O)c1ccc(NS(C)(=O)=O)c(OC(F)(F)F)c1)CC3 [DS18561882] | – | – | – | – | – | – | – | – | greatly decreased | significantly reduced | increased | well tolerated | could reduce ear-swelling
6 | COC[C@H]1CN(c2cc(C)c3c4c(c(=O)oc3c2C)CN(C(=O)c2ccc(C(=O)NS(=O)(=O)N3CCCC3)cc2F)CC4)CCN1C [Example 175, (R)-3-fluoro-4-(8-(3-(methoxymethyl)-4-methylpiperazin-1-yl)-7,10-dimethyl-5-oxo-1,3,4,5-tetrahydro-2H-chromeno[3,4-c]pyridine-3-carbonyl)-N-(pyrrolidin-1-ylsulfonyl)benzamide] | – | – | – | 20000 to 100000 nM | 1000 to 5000 nM | 10 to 100 nM | 1000 to 5000 nM | J (>30) | – | – | – | – | –
7 | COC[C@H]1CN(c2cc(C)c3c4c(c(=O)oc3c2C)CN(C(=O)c2ccc(C(=O)NS(=O)(=O)N3CCCC3)c(OC3CCC3)c2F)CC4)CCN1C [Example 3, (R)-2-cyclobutoxy-3-fluoro-4-(8-(3-(methoxymethyl)-4-methylpiperazin-1-yl)-7,10-dimethyl-5-oxo-1,3,4,5-tetrahydro-2H-chromeno[3,4-c]pyridine-3-carbonyl)-N-(pyrrolidin-1-ylsulfonyl)benzamide] | – | – | – | 20000 to 100000 nM | 10 to 100 nM | 10 to 100 nM | 1 to 10 nM | F (<3) | – | – | – | – | –
8 | COC[C@H]1CN(c2cc(C)c3c4c(c(=O)oc3c2C)CN(C(=O)c2cc(N(C)C)c(C(=O)NS(=O)(=O)N3CCCC3)cc2F)CC4)CCN1C [Example 144, (R)-2-(dimethylamino)-5-fluoro-4-(8-(3-(methoxymethyl)-4-methylpiperazin-1-yl)-7,10-dimethyl-5-oxo-1,3,4,5-tetrahydro-2H-chromeno[3,4-c]pyridine-3-carbonyl)-N-(pyrrolidin-1-ylsulfonyl)benzamide] | – | – | – | 20000 to 100000 nM | 100 to 1000 nM | 1 to 10 nM | 1 to 10 nM | J (>30) | – | – | – | – | –
9 | COC[C@@H]1CN(c2cc(C)c3c4c(c(=O)oc3c2C)CN(C(=O)c2ccc(C(=O)NS(=O)(=O)N3CCCC3)c(OC3CCC3)c2F)CC4)CCN1C [Example 174, (S)-2-cyclobutoxy-3-fluoro-4-(8-(3-(methoxymethyl)-4-methylpiperazin-1-yl)-7,10-dimethyl-5-oxo-1,3,4,5-tetrahydro-2H-chromeno[3,4-c]pyridine-3-carbonyl)-N-(pyrrolidin-1-ylsulfonyl)benzamide] | – | – | – | 20000 to 100000 nM | 100 to 1000 nM | 10 to 100 nM | 10 to 30 nM | G (^ 3 to 9.0) | – | – | – | – | –

Reference: US12662489B2 (Sitryx Therapeutics Limited, priority 2023, dated 2026)
